Assay [1] addresses T1, ERα (Homo sapiens, UniProt P03372).
T1 construct: expressed in transfected cells; host or cells: HAECT-1 cells infected with Ad5-wt-ER adenovirus
T1 sequence (P03372 1-595): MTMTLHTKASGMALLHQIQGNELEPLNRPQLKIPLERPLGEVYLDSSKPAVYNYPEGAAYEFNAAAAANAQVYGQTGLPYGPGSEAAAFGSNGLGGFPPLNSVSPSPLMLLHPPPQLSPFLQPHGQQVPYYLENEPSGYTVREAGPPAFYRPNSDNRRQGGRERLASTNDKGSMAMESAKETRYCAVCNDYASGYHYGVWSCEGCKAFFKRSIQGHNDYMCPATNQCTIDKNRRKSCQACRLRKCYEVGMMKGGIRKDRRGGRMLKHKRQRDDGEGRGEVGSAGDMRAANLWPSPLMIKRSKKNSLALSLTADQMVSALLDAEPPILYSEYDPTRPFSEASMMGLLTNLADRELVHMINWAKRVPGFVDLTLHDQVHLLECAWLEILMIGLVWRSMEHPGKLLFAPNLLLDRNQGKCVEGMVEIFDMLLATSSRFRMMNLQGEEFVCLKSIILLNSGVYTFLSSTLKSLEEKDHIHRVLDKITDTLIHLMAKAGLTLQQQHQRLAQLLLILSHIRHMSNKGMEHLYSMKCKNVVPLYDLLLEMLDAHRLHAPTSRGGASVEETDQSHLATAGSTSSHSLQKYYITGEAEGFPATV
Put plainly: IL-6 assay: inhibition of IL-1β induced IL-6 expression in ERα infected HAECT-1 cells. Format: cell-based. To be noted: for IC50: Ad5-wt-ER infected HAECT-1 cells, IL-1β stimulated, IL-6 by ELISA; for ER/IL-6 % E2: efficacy relative to the maximal inhibition observed with E2. How it is done: (§1) ERα infected HAECT-1 cells or control cells were thawed, diluted 42× in warm EBM-BSA, plated into 96-well plates at 0.1 ml/well and incubated for 4 h at 34° C. Test compounds were added to the cells as 2× stocks in EBM-BSA containing 2 ng/ml IL-1β (R&D Systems) and plates were returned to the incubator (34° C.). After 15-20 h, 100 μl aliquots of media were removed from the cells and assayed for IL-6 content using a BioSource human IL-6 ELISA Kit. Cells were subsequently washed with 300 μl of Dulbecco's phosphate buffered saline and lysed in 50 μl of Cell Culture Lysis Reagent (Promega). Creatine kinase was determined from the rate of increase in A340 following addition of 100 μl of CK assay reagent (Sigma, cat. No 47-10) to the remainder of the cell lysate.
(§2) For IC50 and EC50 calculations, mean IL-6 or CK values versus log10 of the compound concentration were fitted to a four parameter logistic equation. The IC50/EC50 value, ‘Hill slope’, upper and lower limits of the curve were iteratively estimated.

Assay [2] addresses T1, ERα. Put plainly: Creatine kinase (CK) assay in ERα infected HAECT-1 cells. As to conditions: for EC50: Ad5-wt-ER infected HAECT-1 cells, creatine kinase in cell lysate; for ER/CK % E2: efficacy relative to the maximal stimulation observed with E2. Format: cell-based. The protocol: as §1, §2

Data on 25 molecules can be found in US7351709B2, “Estrogen receptor ligands” (Wyeth, priority 2004, dated 2008).

Take `CC[C@@H]1C(=O)N(C)c2ccc(F)cc2N1C(=O)c1ccc(O)cc1O` [Example 19, (3R)-4-(2,4-Dihydroxybenzoyl)-3-ethyl-6-fluoro-1-methyl-3,4-dihydroquinoxalin-2(1H)-one]: at ERα [1], the IC50 (usually the midpoint of a concentration-inhibition curve) was determined as 5.4 nM and the “ER/IL-6 % E2” value is recorded as 92 % E2. In addition, on ERα [2], a half-maximal effect (EC50) was put at 50 nM and the “ER/CK % E2” value was determined as 44 % E2.
For `CC[C@@H]1C(=O)N(C)c2cc(F)ccc2N1C(=O)c1cccc(O)c1` [Example 4, (3R)-3-Ethyl-7-fluoro-4-(3-hydroxybenzoyl)-1-methyl-3,4-dihydroquinoxalin-2(1H)-one] the same measures were 520 nM, 57 % E2, 126 nM and 19 % E2.
On to `CCCN1C(=O)[C@@H](CC)N(C(=O)c2ccc(O)cc2)c2cc(F)ccc21` [Example 9, (3R)-3-Ethyl-6-fluoro-4-(4-hydroxybenzoyl)-1-propyl-3,4-dihydroquinoxalin-2(1H)-one], for which, on ERα [1], the half-inhibitory concentration (IC50) was 222 nM and the “ER/IL-6 % E2” value was found to be 96 % E2.
For `CC[C@H]1C(=O)N(CC)c2ccc(C)cc2N1S(=O)(=O)c1ccc(O)cc1` [Example 27, (3S)-1,3-diethyl-4-[(4-hydroxyphenyl)sulfonyl]-6-methyl-3,4-dihydroquinoxalin-2(1H)-one] the same measures were 447 nM and 63 % E2.
With `CC[C@H]1C(=O)N(C)c2ccc(F)cc2N1C(=O)c1ccc(O)cc1` [Example 7, (3S)-3-Ethyl-6-fluoro-4-(4-hydroxybenzoyl)-1-methyl-3,4-dihydroquinoxalin-2(1H)-one], on ERα [1], the IC50 turned out to be 303 nM and the “ER/IL-6 % E2” value was 44 % E2.
As to `CC[C@H]1C(=O)N(CC)c2ccc(Br)cc2N1S(=O)(=O)c1ccc(O)cc1` [Example 33, (3S)-6-bromo-1,3-diethyl-4-[(4-hydroxyphenyl)sulfonyl]-3,4-dihydroquinoxalin-2(1H)-one], on ERα [1], the IC50 was found to be 413 nM and the “ER/IL-6 % E2” value was 92 % E2.
The like results for `CC[C@@H]1C(=O)N(C2CCCC2)c2ccc(F)cc2N1C(=O)c1ccc(O)cc1` [Example 17, (3R)-1-Cyclopentyl-3-ethyl-6-fluoro-4-(4-hydroxybenzoyl)-3,4-dihydroquinoxalin-2(1H)-one] were, in that order, 445 nM and 96 % E2.
As to `CCCCN1C(=O)[C@@H](CC)N(C(=O)c2ccc(O)cc2)c2cc(F)ccc21` [Example 12, (3R)-1-Butyl-3-ethyl-6-fluoro-4-(4-hydroxybenzoyl)-3,4-dihydroquinoxalin-2(1H)-one], on ERα [1], the 50% inhibitory concentration (IC50) is 52 nM and the “ER/IL-6 % E2” value was 95 % E2.
Consider `CC[C@H]1C(=O)N(CC)c2cc(Br)ccc2N1S(=O)(=O)c1ccc(O)cc1` [Example 31, (3S)-7-Bromo-1,3-diethyl-4-[(4-hydroxyphenyl)sulfonyl]-3,4-dihydroquinoxalin-2(1H)-one], for which, at ERα [1], half-maximal inhibition (IC50) required 1570 nM and the “ER/IL-6 % E2” value amounted to 71 % E2.
For `CC[C@H]1C(=O)N(Cc2ccccc2)c2ccc(F)cc2N1S(=O)(=O)c1ccc(O)cc1` [Example 24, (3S)-1-benzyl-3-ethyl-6-fluoro-4-[(4-hydroxyphenyl)sulfonyl]-3,4-dihydroquinoxalin-2(1H)-one] the same measures were 534 nM and 40 % E2.
`CC[C@H]1C(=O)N(C)c2ccc(C)cc2N1S(=O)(=O)c1ccc(O)cc1` [Example 28, (3S)-3-Ethyl-4-[(4-hydroxyphenyl)sulfonyl]-1,6-dimethyl-3,4-dihydroquinoxalin-2(1H)-one]: at ERα [1], the IC50 amounted to 296 nM and the “ER/IL-6 % E2” value worked out at 92 % E2.
For `CC[C@@H]1C(=O)N(CC(F)(F)F)c2ccc(F)cc2N1C(=O)c1ccc(O)cc1` [Example 16, (3R)-3-Ethyl-6-fluoro-4-(4-hydroxybenzoyl)-1-(2,2,2-trifluoroethyl)-3,4-dihydroquinoxalin-2(1H)-one] the same measures were 204 nM and 83 % E2.
As to `CC[C@H]1C(=O)N(C)c2cc(Br)ccc2N1S(=O)(=O)c1ccc(O)cc1` [Example 32, (3S)-7-bromo-3-ethyl-4-[(4-hydroxyphenyl)sulfonyl]-1-methyl-3,4-dihydroquinoxalin-2(1H)-one], at ERα [1], the 50% inhibitory concentration (IC50) came to 429 nM and the “ER/IL-6 % E2” value is reported as 90 % E2.
Turning to `C=CCN1C(=O)[C@@H](CC)N(C(=O)c2ccc(O)cc2)c2cc(F)ccc21` [Example 10, (3R)-1-Allyl-3-ethyl-6-fluoro-4-(4-hydroxybenzoyl)-3,4-dihydroquinoxalin-2(1H)-one], at ERα [1], the IC50 was found to be 57 nM and the “ER/IL-6 % E2” value was determined as 95 % E2.
Consider `CCCCN1C(=O)[C@H](CC)N(S(=O)(=O)c2ccc(O)cc2)c2cc(F)ccc21` [Example 23, (3S)-1-Butyl-3-ethyl-6-fluoro-4-[(4-hydroxyphenyl)sulfonyl]-3,4-dihydroquinoxalin-2(1H)-one], for which, on ERα [1], it took 313 nM to reach half-maximal inhibition (IC50) and the “ER/IL-6 % E2” value came to 106 % E2.
The like results for `CC[C@@H]1C(=O)N(CC(C)C)c2ccc(F)cc2N1C(=O)c1ccc(O)cc1` [Example 14, (3R)-3-Ethyl-6-fluoro-4-(4-hydroxybenzoyl)-1-isobutyl-3,4-dihydroquinoxalin-2(1H)-one] were, in that order, 262 nM and 87 % E2.
As to `CCN1C(=O)[C@H](C)N(S(=O)(=O)c2ccc(O)cc2)c2cc(F)ccc21` [Example 21, (3S)-1-Ethyl-6-fluoro-4-[(4-hydroxyphenyl)sulfonyl]-3-methyl-3,4-dihydroquinoxalin-2(1H)-one], on ERα [1], the midpoint of inhibition, the IC50, lay at 181 nM and the “ER/IL-6 % E2” value was determined as 56 % E2.
For `CC[C@@H]1C(=O)N(C(C)C)c2ccc(F)cc2N1C(=O)c1ccc(O)cc1` [Example 11, (3R)-3-Ethyl-6-fluoro-4-(4-hydroxybenzoyl)-1-isopropyl-3,4-dihydroquinoxalin-2(1H)-one] the same measures were 105 nM and 91 % E2.
For `CC[C@@H]1C(=O)N(CC)c2ccc(F)cc2N1C(=O)c1ccc(O)cc1` [Example 8, (3R)-1,3-Diethyl-6-fluoro-4-(4-hydroxybenzoyl)-3,4-dihydroquinoxalin-2(1H)-one] the same measures were 139 nM and 99 % E2.
For `CC[C@H]1C(=O)N(CC)c2ccc(F)cc2N1C(=O)c1ccc(O)cc1` [Example 6, (3S)-1,3-Diethyl-6-fluoro-4-(4-hydroxybenzoyl)-3,4-dihydroquinoxalin-2(1H)-one], on ERα [1], the IC50 came to 285 nM and the “ER/IL-6 % E2” value is reported as 44 % E2.
The like results for `CCCCCN1C(=O)[C@@H](CC)N(C(=O)c2ccc(O)cc2)c2cc(F)ccc21` [Example 13, (3R)-3-Ethyl-6-fluoro-4-(4-hydroxybenzoyl)-1-pentyl-3,4-dihydroquinoxalin-2(1H)-one] were, in that order, 89 nM and 102 % E2.
For `C=CCN1C(=O)[C@H](CC)N(S(=O)(=O)c2ccc(O)cc2)c2cc(F)ccc21` [Example 22, (3S)-1-Allyl-3-ethyl-6-fluoro-4-[(4-hydroxyphenyl)sulfonyl]-3,4-dihydroquinoxalin-2(1H)-one] the same measures were 5600 nM and 55 % E2.
Consider `CCCN1C(=O)[C@H](CC)N(S(=O)(=O)c2ccc(O)cc2)c2cc(F)ccc21` [Example 20, (3S)-3-Ethyl-6-fluoro-4-[(4-hydroxyphenyl)sulfonyl]-1-propyl-3,4-dihydroquinoxalin-2(1H)-one], for which, at ERα [1], the half-maximal inhibitory concentration (IC50) was 157 nM and the “ER/IL-6 % E2” value is 79 % E2.
For `CC[C@@H]1C(=O)N(C)c2ccc(F)cc2N1C(=O)c1ccc(O)cc1` [Example 15, (3R)-3-Ethyl-6-fluoro-4-(4-hydroxybenzoyl)-1-methyl-3,4-dihydroquinoxalin-2(1H)-one] the same measures were 102 nM and 84 % E2.
On to `CC[C@H]1C(=O)N(C)c2ccc(Br)cc2N1S(=O)(=O)c1ccc(O)cc1` [Example 34, (3S)-6-bromo-3-ethyl-4-[(4-hydroxyphenyl)sulfonyl]-1-methyl-3,4-dihydroquinoxalin-2(1H)-one], for which, at ERα [1], the IC50 stood at 258 nM and the “ER/IL-6 % E2” value turned out to be 128 % E2.
